How the values were obtained:
dengue virus [1] = experiment: Dengue EC50 determination: PBMC infected with virus/humanized 4G2 antibody complex, plaque reduction assay using BHK cells; format: cell-based; conditions: M.O.I of 1, 48 hours, plaque reduction in BHK cells
Procedure: Cryopreserved PBMC (Peripheral Blood Mononuclear Cell) cells were purchased from AllCells, LLC in USA. The cells were then thawed according to manufacturer's instructions and re-suspended in RPMI medium supplemented with 1% penicillin/streptomycin solution and 10% Fetal Calf serum. The cells were then counted and viability checked (viability should be at least 80%). After centrifuging and removing the media, the cells were diluted to 1×10^7 cells/mL in RPMI medium supplemented with 1% penicillin/streptomycin. 50 μl of the cells were then dispensed into 96-well tissue culture plate resulting in 5×10^5 cells/well. Next, virus with humanized 4G2 mixture was prepared for infection. Briefly, virus (2×10^7 pfu/ml) was mixed with humanized 4G2 antibody with the final antibody concentration of 0.38 μg/ml and incubated for 30 minutes at 4° C. to assist virus/antibody complex formation. The virus-antibody complex was then added to the PBMC at multiplicity of infection (M.O.I) of 1. The mixture of cells, virus and antibody was then further incubated in the plates at 37° C. for an hour in the humidified incubator for virus attachment and infection to take place. Serial diluted compounds were then added to the final media volume of 200 μl with 2% Fetal Calf Serum (final PBMC concentration would be 2.5×10^6 cells/mL). The plates were then incubated at 37° C., 5% CO2 for another 48 hours. The extent of the infection and compound inhibition was measured by plaque reduction assay using BHK cells [RD-2004-80036]. Briefly, supernatants of BHK cells grown in 24-well tissue culture (seeded at 200,000 cells/well the night before) were removed and subjected to 200 μl of diluted supernatants derived from PBMC infection containing serial diluted compounds. After incubating it for 37° C. for 1 hour in the incubator, the supernatants were removed and BHK cells overlaid with RPMI media containing 0.8% methyl-cellulose, 0.5% DMSO, 0.05% sodium bicarbonate, 25 mM HEPES, 2% fetal bovine serum and 1% penicillin/streptomycin solution. After additional 4 days of incubation at 37° C. incubator, the monolayer of BHK cells were fixed with 4% paraformaldehyde, stained with crystal violet and plaques counted. The dose response (n=2) is calculated by Prism from Graphpad software using a mathematical curve fitting analysis called nonlinear regression with four independent parameters. Briefly, the software generates the best fit curve using the formula F(x)=((A−D)/(1+((x/C)̂B)))+D. In this formula, x represents the concentration of the compound, A is the minimum value, B represents the steepness of the curve (sometimes known as Hill slope), C is the inflection point and D is the maximum value. EC50 was estimated as the concentration of the compound which will inhibit 50% of the plaque formation. A positive control (7-deaza-2′-C-acetylene-adenosine) was used to ensure the quality of the data.

[2] = Stability in liver microsomes; format: in vitro ADME; conditions: human, read-out: liver microsomes t1/2
[3] = CCK8 cytotoxicity assay in HepG2 cells; format: cell-based; conditions: human, CCK-8
Procedure: HepG2 cells were trypsinized, washed, counted and diluted to 1.6×10^4 cells/ml in DMEM-W/O Glucose, supplemented with 10% Fetal bovine serum (FBS), 1% Penicillin/Streptomycin, 2 mM HEPES, 1 mM Sodium Pyruvate, 10 mM Galactose & 2 mM Glutamine. 25 μl of the media containing 400 cells per well were dispensed in clear 384-well tissue culture plate and incubated at room temperature for 30 minutes. The plate was then transferred and placed at 37° C., 5% CO2 humidified incubator overnight. On the next day, serial-diluted compound plates were prepared and 125 nl of compounds at various concentrations were then dispensed into the tissue culture well (200× dilution). The plates were then transferred to 37° C., 5% CO2 humidified incubator for additional 96 hours. Cytotoxicity was measured by CCK-8 assay. Briefly, CCK-8 was thawed on bench top and diluted 2.5× with the growth media. 35 ul of the pre-diluted CCK-8 was then introduced into each well and the plates were then further incubated in 37° C., 5% CO2 humidified incubator for 3 hours. The absorbance was read by Envision at 450 nm. Dose response curves were calculated as in the previous section. The CC50 is estimated as the concentration of the compound which will inhibit 50% of the signal. A positive control (puromycin) was used to ensure the quality of the data.

dengue virus [4] = experiment: Intracellular nucleoside triphosphate concentration needed to inhibit 50% of viral production (NTP50) in PBMC; format: cell-based
Procedure: NTP50 is defined as the concentration of the nucleoside triphosphate (NTP) that will inhibit 50% of viral production. The NTP50 experiment was performed using cryopreserved PBMC as described above in the Dengue EC50 determination section. Briefly, PBMC was thawed and incubated in RPMI medium containing 2% Fetal Bovine serum (FBS), 1% Penicillin/Streptomycin supplemented with various concentration of a representative compound of the present invention (e.g., Example 2) up to 100 μM. After the intracellular conversion of Example 2 into corresponding nucleoside triphosphate reached steady state (24 hours at 37° C. in the incubator), the cells were spun down, washed with 0.9% NaCl solution and lyzed in RIPA buffer (50 mM Tris pH 7.5, 150 mM NaCl, 1% NP40) containing with protease and phosphotase inhibitor. The cells were further incubated at room temperature for complete lysis of the cells and the cell debris spun down at 13,000 g in at 4° C. for 20 minutes. The lysate was transferred into […] and the concentration of the nucleoside triphosphate was measured. The concentration of the nucleoside triphosphate was then plotted against the concentration of Example 2 and a curve of the concentration of the nucleoside triphosphate vs incubated Example 2 was generated using Michaelis-Menten Kinetics with the formula Y=A[Example 2]/B+[Example 2] where Y is the concentration of the nucleoside triphosphate and [Example 2] is the concentration of the compound Example 2. A and B were constants determined by best fitting. By EC50 of [Example 2] in the equation, the intracellular concentration of nucleoside triphosphate which corresponds to 50% reduction of the virus (NTP50) can be determined.
Since all compounds of the present invention would be converted to the same nucleoside triphosphate intracellularly (the structure of NTP is shown below), the NTP50 of all compounds of the present invention would be the same regardless which compound was used in the experiment. NTP50 for the compound Example 2 was measured to be 0.0016 μM in PBMC lysate from 1 million cells with 100 μL of lysis buffer. The Mean Corpuscular Volume of PBMC is approximately 0.3×10^−6 μL/per cell=0.3 μL/1 million cells. By using the literature of Simiele, M. et al. Antimicrob. Agents Chemother. 2011 55, 2976-2978, NTP50=0.0016×(100/0.3)=0.53 μM/1 million cells=0.53×0.3/1.0×10^6=0.159×10^−6 μmol/1 million cells. Thus, from the calculation, the intracellular nucleoside triphosphate concentration needed to inhibit 50% of viral production (NTP50) is around ˜200 fmol/1 million cells.

Structure (SMILES) | EC50 (dengue virus [1]) [nM] | half-life [2] [min] | CC50 at 96 h [3] [nM] | NTP50 (dengue virus [4]; in PBMC lysate from 1 million cells with 100 μL of lysis buffer) [µM] | NTP50 (dengue virus [4]; intracellular amount, calculated) | NTP50 (dengue virus [4]; intracellular amount, rounded from the calculation) [fmol/1 million cells] | NTP50 (dengue virus [4]; intracellular, corrected with PBMC volume 0.3 μL/1 million cells) [μM/1 million cells]
CCOC(=O)[C@H](C)N[P@@]1(=O)OC[C@H]2O[C@@H](n3cnc4c(OCC)nc(N)nc43)[C@](C)(F)[C@@H]2O1 [Example 1, (S)-ethyl 2-(((2R,4aR,6R,7R,7aR)-6-(2-amino-6-ethoxy-9H-purin-9-yl)-7-fluoro-7-methyl-2-oxidotetrahydro-4H-furo[3,2-d][1,3,2]dioxaphosphinin-2-yl)amino)propanoate] | 230 | 47 | > 50000 |  |  |  | 
CCOc1nc(N)nc2c1ncn2[C@@H]1O[C@@H]2CO[P@@](=O)(N[C@@H](C)C(=O)OC(C)C)O[C@H]2[C@@]1(C)F [Example 2, (S)-isopropyl 2-(((2S,4aR,6R,7R,7aR)-6-(2-amino-6-ethoxy-9H-purin-9-yl)-7-fluoro-7-methyl-2-oxidotetrahydro-4H-furo[3,2-d][1,3,2]dioxaphosphinin-2-yl)amino)propanoate] | 72 | 32 | > 50000 | 0.0016 | 0.159×10^−6 μmol/1 million cells | ~200 | 0.53
CCOc1nc(N)nc2c1ncn2[C@@H]1O[C@@H]2CO[P@](=O)(N[C@@H](C)C(=O)OC)O[C@H]2[C@@]1(C)F [Example 3, (S)-methyl 2-(((2R,4aR,6R,7R,7aR)-6-(2-amino-6-ethoxy-9H-purin-9-yl)-7-fluoro-7-methyl-2-oxidotetrahydro-4H-furo[3,2-d][1,3,2]dioxaphosphinin-2-yl)amino)propanoate] | 460 | 57 | > 50000 |  |  |  | 
CCOc1nc(N)nc2c1ncn2[C@@H]1O[C@@H]2CO[P@@](=O)(N[C@H](C)C(=O)OC(C)C)O[C@H]2[C@@]1(C)F [Example 6, (R)-isopropyl 2-(((2S,4aR,6R,7R,7aR)-6-(2-amino-6-ethoxy-9H-purin-9-yl)-7-fluoro-7-methyl-2-oxidotetrahydro-4H-furo[3,2-d][1,3,2]dioxaphosphinin-2-yl)amino)propanoate] | 370 |  | > 50000 |  |  |  | 
